Data as given in PubChem BioAssay (NCI).
Several values for one entry are separate records, joined by “and”; a condition that tells them apart may be missing. Equal entries are not always repeated.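 Step 1: Grow cells in 96-well plates. Step 2: Expose to compound for 48 hours at 5 concentrations. Step 3: Interpolate endpoints linearly; if unreached, use highest concentration. Abbreviation: GI50, concentration required for 50% inhibition of growth. TGI: total growth inhibition.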

Columns and labels:
Assay in all cases: NCI tumour cell line growth inhibition, 48 h
UO-31 renal = tested on: UO-31 renal
MALME-3M melanoma = tested on: MALME-3M melanoma
NCI-H460 lung = tested on: NCI-H460 lung
ACHN renal = tested on: ACHN renal
786-0 renal = tested on: 786-0 renal
OVCAR-5 ovarian = tested on: OVCAR-5 ovarian
CCRF-CEM leukemia = tested on: CCRF-CEM leukemia
SK-MEL-5 melanoma = tested on: SK-MEL-5 melanoma
RXF 393 renal = tested on: RXF 393 renal
HCC-2998 colon = tested on: HCC-2998 colon

| SMILES | TGI (UO-31 renal) [µM] | TGI (MALME-3M melanoma) [µM] | TGI (NCI-H460 lung) [µM] | TGI (ACHN renal) [µM] | TGI (786-0 renal) [µM] | TGI (OVCAR-5 ovarian) [µM] | TGI (CCRF-CEM leukemia) [µM] | TGI (SK-MEL-5 melanoma) [µM] | TGI (RXF 393 renal) [µM] | TGI (HCC-2998 colon) [µM] | GI50 (UO-31 renal) [µM] | GI50 (MALME-3M melanoma) [µM] | GI50 (NCI-H460 lung) [µM] | GI50 (ACHN renal) | GI50 (CCRF-CEM leukemia) [µM] | GI50 (SK-MEL-5 melanoma) [µM] | GI50 (RXF 393 renal) [µM] | GI50 (786-0 renal) [µM] | GI50 (OVCAR-5 ovarian) [µM] | GI50 (HCC-2998 colon) [µM] |
| --- | --- | --- | --- | --- | --- | --- | --- | --- | --- | --- | --- | --- | --- | --- | --- | --- | --- | --- | --- | --- |
| CC1=CC2=C(C#N)C(=O)OC2(C)C(c2ccccc2)C1 (centres undefined) | > 100 | > 100 | > 100 | > 100 | > 100 | > 100 |  |  |  |  |  |  |  |  |  |  |  |  |  |  |
| S=C1SCN(C2CCCCCCCCCCC2)CN1C1CCCCCCCCCCC1 | > 100 | > 100 | > 100 | > 100 | > 100 | > 100 | > 100 | > 100 | > 100 |  |  |  |  |  |  |  |  |  |  |  |
| C/C(=N\NS(=O)(=O)c1c(C)cc(C)cc1C)c1ccc[n+]([O-])n1 | 52.8 |  | > 100 | 29.9 | 36 | 56.1 | 18.2 | > 100 |  | > 100 |  |  |  |  |  |  |  |  |  |  |
| Fc1ccc2c(c1)cc1ccc3cccc4ccc2c1c34 | > 100 | > 100 |  | > 100 | > 100 | > 100 | > 100 | > 100 | > 100 | > 100 |  |  |  |  |  |  |  |  |  |  |
| COc1ccc2c(c1OC)C(C=C(c1ccccc1)c1ccccc1)CN(C)C2 (centres undefined) | > 100 | 38.1 | 31.9 | > 100 | 39.5 | 61.6 | 56.6 | 29.7 |  | 67.1 |  |  |  |  |  |  |  |  |  |  |
| COc1ccc2c(c1)c(-c1ccc(-c3cn(C)c4ccc(OC)cc34)o1)cn2C | 15 | > 100 | > 100 | 18.6 | > 100 | 10.6 | 78.4 | 22.8 | 44 |  | 3.6 | 52.8 | 9.89 | 3.74 µM | 6.46 | 10.4 | 10.4 | > 100 | 2.79 |  |
| CC(C)c1cc(C(=O)[O-])c(O)c(C(C)C)c1.CC(C)c1cc(C(=O)[O-])c(O)c(C(C)C)c1.CC(C)c1cc(C(=O)[O-])c(O)c(C(C)C)c1.CC(C)c1cc(C(=O)[O-])c(O)c(C(C)C)c1.CC(C)c1cc(C(=O)[O-])c(O)c(C(C)C)c1.CC(C)c1cc(C(=O)[O-])c(O)c(C(C)C)c1.[Cu+2].[Mn+2].[Mn+2] | 32.6 | 28.7 | 32.2 | > 100 | 46.9 | 49.3 | 42.8 | 32.3 |  |  | 16.5 | 15.1 | 15.8 | 31.7 µM | 15.8 | 17.1 |  | 20.3 | 28.2 |  |
| COc1c(N2CCN(CN3C(=O)C(=O)c4ccccc43)C(C)C2)c(F)cc2c(=O)c(C(=O)O)cn(C3CC3)c12 (centres undefined) | > 100 |  | > 100 | > 100 | > 100 | 99.4 |  | > 100 | > 100 |  | > 100 |  | 43.4 | > 100 µM |  | 35.3 | > 100 | > 100 | 13.6 |  |
| CC(C)C1NC(=O)[C@H](C)OC(=O)[C@@H](C(C)C)NC(=O)[C@@H](C)OC(=O)C(C(C)C)NC(=O)[C@H](C)OC1=O (some centres undefined) | > 100 | > 100 | > 100 | > 100 | 47.2 | > 100 | > 100 | > 100 |  | > 100 |  |  |  |  |  |  |  |  |  |  |
| CC(C)(C)C1CCC(=O)C(C(O)CC2CC(=O)N(c3ccccc3)C(=O)C2)C1 (centres undefined) | > 100 | > 100 | > 100 | > 100 | > 100 | > 100 | > 100 |  | > 100 | > 100 |  |  |  |  |  |  |  |  |  |  |
| CC1(C)OC2COC(c3[nH]nc4c(=O)[nH]c(=O)[nH]c34)C2O1 (centres undefined) | > 100 | > 100 | > 100 | > 100 | > 100 | > 100 |  | > 100 | > 100 |  |  |  |  |  |  |  |  |  |  |  |
| CC(C)C1=CC23CCC4C(C)(C(=O)O)CCCC4(C)C2CC1C1C(=O)N(c2cccc(N4C(=O)C5C6CC7C8(C)CCCC(C)(C(=O)O)C8CCC7(C=C6C(C)C)C5C4=O)c2)C(=O)C13 (centres undefined) | 29.1 | 32.9 |  | 26.1 | > 100 | 20 | 26.2 | 28.6 | 27 | 20.3 |  |  |  |  |  |  |  |  |  |  |
| CSC1SCC2C(=O)N(C)C(C(C)C)C(=O)OCC(NC(=O)c3cnc4ccccc4n3)C(=O)NC(C)C(=O)N(C)C1C(=O)N(C)C(C(C)C)C(=O)OCC(NC(=O)c1cnc3ccccc3n1)C(=O)NC(C)C(=O)N2C (centres undefined) |  |  |  |  |  |  |  |  |  |  | 0.00328 | < 0.001 | < 0.001 | < 0.001 µM and 0.00186 µM and 0.0075 µM | < 0.001 |  | < 0.001 | < 0.001 | < 0.001 | < 0.001 |
| O=c1c(-c2nc3ccccc3[nH]2)cc2ccccc2n1Cc1cn(Cc2ccccc2Cl)nn1 | 2.88 | 3.65 | 3.88 | 3.27 | 3.27 | 4.78 | > 100 |  |  | 37.4 | 1.33 | 1.62 | 2.01 | 1.71 µM | 8.58 |  |  | 1.66 | 2.1 | 4.19 |
